From ChEMBL document CHEMBL3576821, “A potent antimicrobial compound isolated from Clathria cervicornis” (2015) come the findings set out here.

What is called MIC is the smallest concentration in the dilution series that meets the test's criterion for growth inhibition.

Format in all cases: functional
One experiment has as its system Acinetobacter baumannii. Briefly: Antimicrobial activity against Acinetobacter baumannii ATCC 19606 assessed as bacterial growth inhibition after 24 hrs by standard broth microdilution method. The following applies: ATCC 19606, 24 h. (In general: In broth dilution the organism is exposed to a series of concentrations in liquid medium.)
Another experiment deals with Klebsiella pneumoniae. As to the kind of experiment: Antimicrobial activity against Klebsiella pneumoniae ATCC 13883 assessed as bacterial growth inhibition after 24 hrs by standard broth microdilution method. The following applies: ATCC 13883, 24 h.
The test system of the next experiment is Pseudomonas aeruginosa. As to the kind of experiment: Antimicrobial activity against Pseudomonas aeruginosa ATCC 10145 assessed as bacterial growth inhibition after 24 hrs by standard broth microdilution method. The following applies: ATCC 10145, 24 h.

Values after ≈ are worked out from the molar mass of the structure shown.

For `O=C(O)c1cn(C2CC2)c2cc(N3CCNCC3)c(F)cc2c1=O` [CIPROFLOXACIN], the MIC in the experiment on Acinetobacter baumannii amounted to 2 µg/mL (≈ 6.04 µM); with Klebsiella pneumoniae, 1 µg/mL (≈ 3.02 µM); with Pseudomonas aeruginosa it was 1 µg/mL (≈ 3.02 µM).

Take `CC[C@H]1CCCC[C@@]2(C[C@@H]3CC[C@@H]4[C@H](C(=O)OCCCCCCCCCCCCCCCC(=O)N(CCCN)C[C@@H](O)CCN)[C@]5(CCC[C@@H](C)O5)N=C(N2)N34)O1` [CRAMBESCIDIN 800]: the MIC in the experiment on Acinetobacter baumannii was found to be 2 µg/mL (≈ 2.49 µM); in the experiment on Klebsiella pneumoniae it was 1 µg/mL (≈ 1.25 µM); in the experiment on Pseudomonas aeruginosa, 1 µg/mL (≈ 1.25 µM).

For `CN(C)[C@@H]1C(O)=C(C(N)=O)C(=O)[C@@]2(O)C(O)=C3C(=O)c4c(O)cccc4[C@@](C)(O)[C@H]3C[C@@H]12` [TETRACYCLINE], the MIC in the experiment on Acinetobacter baumannii was found to be 2 µg/mL (≈ 4.5 µM); in the experiment on Klebsiella pneumoniae it was 1 µg/mL (≈ 2.25 µM); with Pseudomonas aeruginosa, 1 µg/mL (≈ 2.25 µM).

Consider `C[C@H]1COc2c(N3CCN(C)CC3)c(F)cc3c(=O)c(C(=O)O)cn1c23.C[C@H]1COc2c(N3CCN(C)CC3)c(F)cc3c(=O)c(C(=O)O)cn1c23.O` [LEVOFLOXACIN], for which, in the experiment on Acinetobacter baumannii, the MIC was 1 µg/mL.
